Measurements from patent publication EP0908457B1, “3-(1,2-benzisothiazol- and isoxazol-5-Y1)-2,4(1H,3H)-pyrimidinedione or thione and 3-(1,2-benzisothiazol- and isoxazol-5-y1)-4(3H)-pyrimidinone or thione herbicidal agents” (BASF AKTIENGESELLSCHAFT, priority 1997, dated 1999).

How the values were obtained:
[1] = tested on: Echinochloa oryzoides (Ard.) Fritsch.; test: Preemergence weed control under flooded paddy conditions, ECHORC (Watergrass (Calif.)); assay type: in vivo; details: preemergence, flooded paddy, rated 3-4 weeks after treatment
[2] = tested on: Sagittaria pygmaea, L.; test: Preemergence weed control under flooded paddy conditions, SAGPY (Arrowhead (Pygmaea)); assay type: in vivo; details: preemergence, flooded paddy, rated 3-4 weeks after treatment
[3] = tested on: Cyperus iria; test: Preemergence weed control under flooded paddy conditions, CYPIR (Rice Flatsedge); assay type: in vivo; details: preemergence, flooded paddy, rated 3-4 weeks after treatment
[4] = tested on: Cyperus serotinus, Rottb.; test: Preemergence weed control under flooded paddy conditions, CYPSE (Flatsedge); assay type: in vivo; details: preemergence, rated 3-4 weeks after treatment
[5] = tested on: Monochoria vaginalis, Presl.; test: Preemergence weed control under flooded paddy conditions, MOOVA (Monochoria); assay type: in vivo; details: preemergence, flooded paddy, rated 3-4 weeks after treatment
[6] = tested on: Oryza sativa, (L.) Tebonnet; test: Rice tolerance to post-transplant applications under flooded paddy conditions (Example 187), ORYSAT (Rice, Tebonnet); details: rated 3-4 weeks after treatment
Further: meaning of each grade not given here.

Compound | herbicidal effect rating, ECHORC ([1]; Rate 0.0320 kg/ha) | herbicidal effect rating, ECHORC ([1]; Rate 0.0620 kg/ha) | herbicidal effect rating, ECHORC ([1]; Rate 0.1250 kg/ha) | herbicidal effect rating, ECHORC ([1]; Rate 0.2500 kg/ha) | herbicidal effect rating, SAGPY ([2]; Rate 0.0320 kg/ha) | herbicidal effect rating, SAGPY ([2]; Rate 0.0620 kg/ha) | herbicidal effect rating, SAGPY ([2]; Rate 0.1250 kg/ha) | herbicidal effect rating, SAGPY ([2]; Rate 0.2500 kg/ha) | herbicidal effect rating, CYPIR ([3]; Rate 0.0320 kg/ha) | herbicidal effect rating, CYPIR ([3]; Rate 0.0620 kg/ha) | herbicidal effect rating, CYPIR ([3]; Rate 0.1250 kg/ha) | herbicidal effect rating, CYPIR ([3]; Rate 0.2500 kg/ha) | herbicidal effect rating, CYPSE ([4]; Rate 0.0320 kg/ha) | herbicidal effect rating, CYPSE ([4]; Rate 0.0620 kg/ha) | herbicidal effect rating, CYPSE ([4]; Rate 0.1250 kg/ha) | herbicidal effect rating, CYPSE ([4]; Rate 0.2500 kg/ha) | herbicidal effect rating, MOOVA ([5]; Rate 0.0320 kg/ha) | herbicidal effect rating, MOOVA ([5]; Rate 0.0620 kg/ha) | herbicidal effect rating, MOOVA ([5]; Rate 0.1250 kg/ha) | herbicidal effect rating, MOOVA ([5]; Rate 0.2500 kg/ha) | other results
CC=CCOC(=O)C(C)(C)Oc1ccc(C)cc1-c1nsc2ccc(-n3c(=O)cc(C(F)(F)F)n(C)c3=O)cc12 [Example 529, Propionic acid, 2-{{2-{5-[3,6-dihydro-3-methyl-2,6-dioxo-4-(trifluoromethyl)-1(2H)-pyrimidinyl]-1,2-benzisothiazol-3-yl}-p-tolyl}oxy}-2-methyl-, 2-butenyl ester] | 7.0 | 9.0 | 9.0 | 9.0 | 9.0 | 9.0 | 9.0 | 9.0 | 3.0 | 3.0 | 3.0 | 0.0 | 0.0 | 0.0 | 0.0 | 0.0 | 3.0 | 3.0 | 3.0 | 0.0 | herbicidal effect rating ORYSAT ([6]; Rate 0.0320 kg/ha): 0.0; herbicidal effect rating ORYSAT ([6]; Rate 0.0620 kg/ha): 0.0; herbicidal effect rating ORYSAT ([6]; Rate 0.1250 kg/ha): 3.0; herbicidal effect rating ORYSAT ([6]; Rate 0.2500 kg/ha): 9.0
C=CCOC(=O)C(C)(C)Oc1ccc(C)cc1-c1nsc2ccc(-n3c(=O)cc(C(F)(F)F)n(C)c3=O)cc12 [Example 530, Propionic acid, 2-{{2-{5-[3,6-dihydro-3-methyl-2,6-dioxo-4-(trifluoromethyl)-1(2H)-pyrimidinyl]-1,2-benzisothiazol-3-yl}-p-tolyl}oxy}-2-methyl-, allyl ester] | 9.0 | 9.0 | 9.0 | 9.0 | 0.0 | 0.0 | 3.0 | 9.0 | 0.0 | 9.0 | 9.0 | 9.0 | 0.0 | 0.0 | 0.0 | 0.0 | 9.0 | 9.0 | 9.0 | 9.0 | herbicidal effect rating ORYSAT ([6]; Rate 0.0320 kg/ha): 0.0; herbicidal effect rating ORYSAT ([6]; Rate 0.0620 kg/ha): 0.0; herbicidal effect rating ORYSAT ([6]; Rate 0.1250 kg/ha): 3.0; herbicidal effect rating ORYSAT ([6]; Rate 0.2500 kg/ha): 9.0
C#CC(C)OC(=O)C(C)(C)Oc1ccc(C)cc1-c1nsc2ccc(-n3c(=O)cc(C(F)(F)F)n(C)c3=O)cc12 (stereo not drawn) [Example 531, Propionic acid, 2-{{2-{5-[3,6-dihydro-3-methyl-2,6-dioxo-4-(trifluoromethyl)-1(2H)-pyrimidinyl]-1,2-benzisothiazol-3-yl}-p-tolyl}oxy}-2-methyl-, 1-methyl-2-propynyl ester] | 9.0 | 9.0 | 9.0 | 9.0 | 0.0 | 0.0 | 3.0 | 3.0 | 0.0 | 0.0 | 4.0 | 4.0 | 0.0 | 0.0 | 3.0 | 3.0 | 9.0 | 9.0 | 9.0 | 9.0 | herbicidal effect rating ORYSAT ([6]; Rate 0.0320 kg/ha): 0.0; herbicidal effect rating ORYSAT ([6]; Rate 0.0620 kg/ha): 0.0; herbicidal effect rating ORYSAT ([6]; Rate 0.1250 kg/ha): 3.0; herbicidal effect rating ORYSAT ([6]; Rate 0.2500 kg/ha): 9.0
COCC(C)OC(=O)C(C)(C)Oc1ccc(C)cc1-c1nsc2ccc(-n3c(=O)cc(C(F)(F)F)n(C)c3=O)cc12 (stereo not drawn) [Example 532, Propionic acid, 2-{{2-{5-[3,6-dihydro-3-methyl-2,6-dioxo-4-(trifluoromethyl)-1(2H)-pyrimidinyl]-1,2-benzisothiazol-3-yl}-p-tolyl}oxy}-2-methyl-, 2-methoxy-1-methylethyl ester] | 9.0 | 9.0 | 9.0 | 9.0 | 0.0 | 0.0 | 0.0 | 9.0 | 9.0 | 9.0 | 9.0 | 9.0 | 0.0 | 0.0 | 0.0 | 0.0 | 9.0 | 9.0 | 9.0 | 9.0 | herbicidal effect rating ORYSAT ([6]; Rate 0.0320 kg/ha): 0.0; herbicidal effect rating ORYSAT ([6]; Rate 0.0620 kg/ha): 0.0; herbicidal effect rating ORYSAT ([6]; Rate 0.1250 kg/ha): 0.0; herbicidal effect rating ORYSAT ([6]; Rate 0.2500 kg/ha): 2.0
Cc1ccc(OCC(=O)OCCC2OCC(C)(C)CO2)c(-c2nsc3ccc(-n4c(=O)cc(C(F)(F)F)n(C)c4=O)cc23)c1 [Example 533, Acetic acid, {{2-{5-[3,6-dihydro-3-methyl-2,6-dioxo-4-(trifluoromethyl)-1(2H)-pyrimidinyl]-1,2-benzisothiazol-3-yl}-p-tolyl}oxy}-, 2-(5,5-dimethyl-m-dioxan-2-yl)ethyl ester] | 7.5 | 9.0 | 9.0 | 9.0 | 0.0 | 0.0 | 0.0 | 4.0 | 2.0 | 3.0 | 4.0 | 9.0 | 0.0 | 0.0 | 3.0 | 9.0 | 9.0 | 9.0 | 9.0 | 9.0 | herbicidal effect rating ORYSAT ([6]; Rate 0.0320 kg/ha): 3.0; herbicidal effect rating ORYSAT ([6]; Rate 0.0620 kg/ha): 4.5; herbicidal effect rating ORYSAT ([6]; Rate 0.1250 kg/ha): 5.0; herbicidal effect rating ORYSAT ([6]; Rate 0.2500 kg/ha): 8.0
COCCCOCCCOC(=O)COc1ccc(C)cc1-c1nsc2ccc(-n3c(=O)cc(C(F)(F)F)n(C)c3=O)cc12 [Example 536, Acetic acid, {{2-{5-[3,6-dihydro-3-methyl-2,6-dioxo-4-(trifluoromethyl)-1(2H)-pyrimidinyl]-1,2-benzisothiazol-3-yl}-p-tolyl}oxy}-, 3-(3-methoxypropoxy)propyl ester] | 3.0 | 4.0 | 5.0 | 9.0 | 0.0 | 0.0 | 0.0 | 0.0 | 0.0 | 0.0 | 0.0 | 4.0 | 0.0 | 0.0 | 0.0 | 0.0 | 9.0 | 9.0 | 9.0 | 9.0 | herbicidal effect rating ORYSAT ([6]; Rate 0.0320 kg/ha): 0.0; herbicidal effect rating ORYSAT ([6]; Rate 0.0620 kg/ha): 0.0; herbicidal effect rating ORYSAT ([6]; Rate 0.1250 kg/ha): 1.0; herbicidal effect rating ORYSAT ([6]; Rate 0.2500 kg/ha): 4.0
